Measurements: US20080207705A1, “Heteroaryl-Imidazole Derivatives as Cannabinoid CB1 Receptor Antagonists” (Green Cross Corporation, priority 2007, published 2008)
Where two headings read alike, the source gives them in different places.

Biological target: T1, rat CB-1 receptor (Rattus norvegicus, UniProt P20272)
T1 construct: The tissue obtained from the brain of SD rats was homogenized; from tissue; host or cells: brain of SD rats (membrane pellet of homogenate)
Assay: rat CB-1 receptor binding protocol with [3H]CP-55940

[1] = [3H]CP-55940, brain tissue of SD rats, 30 °C for 60 min, read-out: IC50

T1 sequence (P20272 whole entry): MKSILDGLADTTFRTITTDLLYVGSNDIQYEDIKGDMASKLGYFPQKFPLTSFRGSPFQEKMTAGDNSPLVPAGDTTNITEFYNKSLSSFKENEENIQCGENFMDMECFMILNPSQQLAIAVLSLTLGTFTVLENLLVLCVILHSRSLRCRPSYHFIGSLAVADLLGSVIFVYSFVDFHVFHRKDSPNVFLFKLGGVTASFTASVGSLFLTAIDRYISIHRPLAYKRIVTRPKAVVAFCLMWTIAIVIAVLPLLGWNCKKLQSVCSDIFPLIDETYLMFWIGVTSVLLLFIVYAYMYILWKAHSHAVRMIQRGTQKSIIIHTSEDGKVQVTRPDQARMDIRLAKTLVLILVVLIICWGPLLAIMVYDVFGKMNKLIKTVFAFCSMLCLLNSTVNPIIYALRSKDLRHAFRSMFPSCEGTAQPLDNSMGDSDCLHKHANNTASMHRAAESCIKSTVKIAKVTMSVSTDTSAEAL

| Structure (SMILES) | IC50 [1] [nM] | IC50 [nM] |
| --- | --- | --- |
| Cc1c(-c2nnc(C(C)(C)C)s2)nc(-c2ccccc2Cl)n1-c1ccc(Br)cc1 [Example 141, 2-(1-(4-Bromophenyl)-2-(2-chlorophenyl)-5-methyl-1H-imidazol-4-yl)-5-tert-butyl-1,3,4-thiadiazole] | 10.7 | – |
| CCc1c(-c2nnc(C(C)(C)C)o2)nc(-c2ccc(Cl)cc2Cl)n1-c1ccc(Br)cc1 [Example 21, 2-(1-(4-Bromophenyl)-2-(2,4-dichlorophenyl)-5-ethyl-1H-imidazol-4-yl)-5-tert-butyl-1,3,4-oxadiazole] | 3.15 | – |
| FC(F)(F)C1(c2nnc(-c3nc(-c4ccccc4Cl)n(-c4ccc(Br)cc4)c3Cn3cncn3)o2)CCC1 [Example 80, 2-(5-((1H-1,2,4-Triazol-1-yl)methyl)-1-(4-bromophenyl)-2-(2-chlorophenyl)-1H-imidazol-4-yl)-5-(1-(trifluoromethyl)cyclobutyl)-1,3,4-oxadiazole] | 3.36 | – |
| CCc1c(-c2nnc(C3(c4ccc(Cl)cc4)CC3)s2)nc(-c2ccccc2Cl)n1-c1ccc(Br)cc1 [Example 148, 2-(1-(4-Bromophenyl)-2-(2-chlorophenyl)-5-ethyl-1H-imidazol-4-yl)-5-(1-(4-chlorophenyl)cyclopropyl)-1,3,4-thiadiazole] | 4.93 | – |
| CCc1c(-c2nnc(C3(c4ccc(OC)cc4)CC3)s2)nc(-c2ccc(Cl)cc2Cl)n1-c1ccc(Br)cc1 [Example 132, 2-(1-(4-Bromophenyl)-2-(2,4-dichlorophenyl)-5-ethyl-1H-imidazol-4-yl)-5-(1-(4-methoxyphenyl)cyclopropyl)-1,3,4-thiadiazole] | 9.21 | – |
| Cc1c(-c2nnc(C3CCCCC3)s2)nc(-c2ccc(Cl)cc2Cl)n1-c1ccc(Br)cc1 [Example 108, 2-(1-(4-Bromophenyl)-2-(2,4-dichlorophenyl)-5-methyl-1H-imidazol-4-yl)-5-cyclohexyl-1,3,4-thiadiazole] | 56.6 | – |
| CC(C)c1c(-c2nnc(C3(c4ccccc4)CC3)o2)nc(-c2ccc(Cl)cc2Cl)n1-c1ccc(Br)cc1 [Example 26, 2-(1-(4-Bromophenyl)-2-(2,4-dichlorophenyl)-5-isopropyl-1H-imidazol-4-yl)-5-(1-phenylcyclopropyl)-1,3,4-oxadiazole] | 10.3 | – |
| CCc1c(-c2nnc(C3(C(F)(F)F)CCC3)o2)nc(-c2ccccc2Cl)n1-c1ccc(Br)cc1 [Example 57, 2-(1-(4-Bromophenyl)-2-(2-chlorophenyl)-5-ethyl-1H-imidazol-4-yl)-5-(1-(trifluoromethyl)cyclobutyl)-1,3,4-oxadiazole] | – | 13.4 |
| Cc1c(-c2nnc(C(C)(C)C)o2)nc(-c2ccc(Cl)cc2Cl)n1-c1ccc(Cl)cc1 [Example 1, 2-tert-Butyl-5-(1-(4-chlorophenyl)-2-(2,4-dichlorophenyl)-5-methyl-1H-imidazol-4-yl)-1,3,4-oxadiazole] | 13.2 | – |
| Cc1c(-c2nnc(C3(C(F)(F)F)CC3)s2)nc(-c2ccccc2Cl)n1-c1ccc(Br)cc1 [Example 142, 2-(1-(4-Bromophenyl)-2-(2-chlorophenyl)-5-methyl-1H-imidazol-4-yl)-5-(1-(trifluoromethyl)cyclopropyl)-1,3,4-thiadiazole] | 12.3 | – |
| CCCc1c(-c2nnc(C3(c4ccc(Cl)cc4)CCC3)o2)nc(-c2ccc(Cl)cc2Cl)n1-c1ccc(Br)cc1 [Example 34, 2-(1-(4-Bromophenyl)-2-(2,4-dichlorophenyl)-5-propyl-1H-imidazol-4-yl)-5-(1-(4-chlorophenyl)cyclobutyl)-1,3,4-oxadiazole] | 9.05 | – |
| Cc1c(-c2ncc(C(C)C)o2)nc(-c2ccc(Cl)cc2Cl)n1-c1ccc(Cl)cc1 [Example 183, 2-(1-(4-Chlorophenyl)-2-(2,4-dichlorophenyl)-5-methyl-1H-imidazol-4-yl)-5-isopropyloxazole] | 26.4 | – |
| CC(C)c1c(-c2nnc(C3(c4ccccc4)CC3)o2)nc(-c2ccc(Cl)cc2Cl)n1-c1ccc(Cl)cc1 [Example 28, 2-(1-(4-Chlorophenyl)-2-(2,4-dichlorophenyl)-5-isopropyl-1H-imidazol-4-yl)-5-(1-phenylcyclopropyl)-1,3,4-oxadiazole] | 15.5 | – |
| CCc1c(-c2nc(C(C)(C)C)co2)nc(-c2ccc(Cl)cc2Cl)n1-c1ccc(Br)cc1 [Example 191, 2-(1-(4-Bromophenyl)-2-(2,4-dichlorophenyl)-5-ethyl-1H-imidazol-4-yl)-4-tert-butyloxazole] | 30 | – |
| CC(C)(C)c1nnc(-c2nc(-c3ccc(Cl)cc3Cl)n(-c3ccc(Br)cc3)c2Cn2cncn2)o1 [Example 74, 2-(5-((1H-1,2,4-Triazol-1-yl)methyl)-1-(4-bromophenyl)-2-(2,4-dichlorophenyl)-1H-imidazol-4-yl)-5-tert-butyl-1,3,4-oxadiazole] | 5.21 | – |
| FC(F)(F)C1(c2nnc(-c3nc(-c4ccc(Cl)cc4Cl)n(-c4ccc(Br)cc4)c3Cn3cncn3)s2)CC1 [Example 165, 2-(5-((1H-1,2,4-Triazol-1-yl)methyl)-1-(4-bromophenyl)-2-(2,4-dichlorophenyl)-1H-imidazol-4-yl)-5-(1-(trifluoromethyl)cyclopropyl)-1,3,4-thiadiazole] | 5.59 | – |
| CCc1c(-c2ncc(C(C)(C)C)o2)nc(-c2ccc(Cl)cc2Cl)n1-c1ccc(Br)cc1 [Example 188, 2-(1-(4-Bromophenyl)-2-(2,4-dichlorophenyl)-5-ethyl-1H-imidazol-4-yl)-5-tert-butyloxazole] | 8.98 | – |
| FC(F)(F)C1(c2nnc(-c3nc(-c4ccc(Cl)cc4Cl)n(-c4ccc(Br)cc4)c3Cn3cncn3)o2)CCC1 [Example 76, 2-(5-((1H-1,2,4-Triazol-1-yl)methyl)-1-(4-bromophenyl)-2-(2,4-dichlorophenyl)-1H-imidazol-4-yl)-5-(1-(trifluoromethyl)cyclobutyl)-1,3,4-oxadiazole] | – | 3.95 |
| CCc1c(-c2nnc(C3(c4ccc(OC)cc4)CC3)o2)nc(-c2ccc(Cl)cc2Cl)n1-c1ccc(Br)cc1 [Example 42, 2-(1-(4-Bromophenyl)-2-(2,4-dichlorophenyl)-5-ethyl-1H-imidazol-4-yl)-5-(1-(4-methoxyphenyl)cyclopropyl)-1,3,4-oxadiazole] | – | 18.6 |
| CCCc1c(-c2nnc(C3CCCCC3)s2)nc(-c2ccc(Cl)cc2Cl)n1-c1ccc(Br)cc1 [Example 120, 2-(1-(4-Bromophenyl)-2-(2,4-dichlorophenyl)-5-propyl-1H-imidazol-4-yl)-5-cyclohexyl-1,3,4-thiadiazole] | 44.3 | – |
| CCCc1c(-c2nnc(C3CCC3)o2)nc(-c2ccc(Cl)cc2Cl)n1-c1ccc(Br)cc1 [Example 32, 2-(1-(4-Bromophenyl)-2-(2,4-dichlorophenyl)-5-propyl-1H-imidazol-4-yl)-5-cyclobutyl-1,3,4-oxadiazole] | 68.9 | – |

Continued, in another order:

| IC50 [1] [nM] | Structure (SMILES) | IC50 [nM] |
| --- | --- | --- |
| 15 | CCCCC(C)c1nnc(-c2nc(-c3ccc(Cl)cc3Cl)n(-c3ccc(Cl)cc3)c2C)s1 (centres unmarked) [Example 95, 2-(1-(4-Chlorophenyl)-2-(2,4-dichlorophenyl)-5-methyl-1H-imidazol-4-yl)-5-(hexan-2-yl)-1,3,4-thiadiazole] | – |
| 11.5 | CCCC(C)c1nnc(-c2nc(-c3ccc(Cl)cc3Cl)n(-c3ccc(Cl)cc3)c2CC)o1 (centres unmarked) [Example 17, 2-(1-(4-Chlorophenyl)-2-(2,4-dichlorophenyl)-5-ethyl-1H-imidazol-4-yl)-5-(pentan-2-yl)-1,3,4-oxadiazole] | – |
| 18.9 | CCCc1c(-c2nnc(C(C)(C)C)o2)nc(-c2ccc(Cl)cc2Cl)n1-c1ccc(Cl)cc1 [Example 35, 2-tert-Butyl-5-(1-(4-chlorophenyl)-2-(2,4-dichlorophenyl)-5-propyl-1H-imidazol-4-yl)-1,3,4-oxadiazole] | – |
| 37.4 | CCCc1c(-c2nnc(C3CCC3)s2)nc(-c2ccc(Cl)cc2Cl)n1-c1ccc(Br)cc1 [Example 122, 2-(1-(4-Bromophenyl)-2-(2,4-dichlorophenyl)-5-propyl-1H-imidazol-4-yl)-5-cyclobutyl-1,3,4-thiadiazole] | – |
| 28.1 | CCC(C)c1nnc(-c2nc(-c3ccc(Cl)cc3Cl)n(-c3ccc(Cl)cc3)c2C)s1 (centres unmarked) [Example 97, 2-sec-Butyl-5-(1-(4-chlorophenyl)-2-(2,4-dichlorophenyl)-5-methyl-1H-imidazol-4-yl)-1,3,4-thiadiazole] | – |
| 8.46 | CCc1c(-c2nnc(C(C)CC)s2)nc(-c2ccc(Cl)cc2Cl)n1-c1ccc(Cl)cc1 (centres unmarked) [Example 107, 2-sec-Butyl-5-(1-(4-chlorophenyl)-2-(2,4-dichlorophenyl)-5-ethyl-1H-imidazol-4-yl)-1,3,4-thiadiazole] | – |
| 6.49 | CC(C)c1c(-c2nnc(C(C)(C)C)s2)nc(-c2ccc(Cl)cc2Cl)n1-c1ccc(Br)cc1 [Example 114, 2-(1-(4-Bromophenyl)-2-(2,4-dichlorophenyl)-5-isopropyl-1H-imidazo-4-yl)-5-tert-butyl-1,3,4-thiadiazole] | – |
| 77.9 | CCc1oc(-c2nc(-c3ccc(Cl)cc3Cl)n(-c3ccc(Cl)cc3)c2C)nc1C [Example 192, 2-(1-(4-Chlorophenyl)-2-(2,4-dichlorophenyl)-5-methyl-1H-imidazol-4-yl)-5-ethyl-4-methyloxazole] | – |
| 1.87 | CCc1c(-c2nnc(C3(c4ccc(Cl)cc4)CCCC3)s2)nc(-c2ccc(Cl)cc2Cl)n1-c1ccc(Br)cc1 [Example 135, 2-(1-(4-Bromophenyl)-2-(2,4-dichlorophenyl)-5-ethyl-1H-imidazol-4-yl)-5-(1-(4-chlorophenyl)cyclopentyl)-1,3,4-thiadiazole] | – |
| 10.8 | Cc1c(-c2nnc(C3CCCC3)s2)nc(-c2ccc(Cl)cc2Cl)n1-c1ccc(Cl)cc1 [Example 92, 2-(1-(4-Chlorophenyl)-2-(2,4-dichlorophenyl)-5-methyl-1H-imidazol-4-yl)-5-cyclopentyl-1,3,4-thiadiazole] | – |
| 3.43 | CCCc1c(-c2nnc(C3(c4ccc(Cl)cc4)CC3)s2)nc(-c2ccc(Cl)cc2Cl)n1-c1ccc(Cl)cc1 [Example 127, 2-(1-(4-Chlorophenyl)-2-(2,4-dichlorophenyl)-5-propyl-1H-imidazol-4-yl)-5-(1-(4-chlorophenyl)cyclopropyl)-1,3,4-thiadiazole] | – |
